According to paper PMC4770715, “LIM kinase inhibitors disrupt mitotic microtubule organization and impair tumor cell proliferation” (Oncotarget, 2015):

Experiments:
Assay in all cases: biochemical
Parameters in all cases: KINOMEscan active-site competition binding, percent of control (100 = no competition)
Details in all cases: competition binding, percent control
FLT4 = FLT4 (Homo sapiens, UniProt P35916)
EGFR(G719S) = EGFR(G719S) (Homo sapiens, UniProt P00533, G719S)
TLK2 = TLK2 (Homo sapiens, UniProt Q86UE8)
IKK-beta = target: T1, IKK-beta (Homo sapiens, UniProt O14920)
T1 construct: gene IKBKB

BMX = BMX (Homo sapiens, UniProt P51813)
CSK = CSK (Homo sapiens, UniProt P41240)
SYK = SYK (Homo sapiens, UniProt P43405)
MARK1 = MARK1 (Homo sapiens, UniProt Q9P0L2)
[1] = target: T2, ABL1(F317L)-nonphosphorylated (Homo sapiens, UniProt P00519, F317L)
T2 construct: nonphosphorylated

CDK7 = CDK7 (Homo sapiens, UniProt P50613)
[2] = target: T3, RSK1(Kin.Dom.2-C-terminal) (Homo sapiens, UniProt Q15418)
T3 construct: gene RPS6KA1; Kin.Dom.2-C-terminal

ERK3 = target: T4, ERK3 (Homo sapiens, UniProt Q16659)
T4 construct: gene MAPK6

YES = target: T5, YES (Homo sapiens, UniProt P07947)
T5 construct: gene YES1

PRKD3 = PRKD3 (Homo sapiens, UniProt O94806)
TTK = TTK (Homo sapiens, UniProt P33981)
[3] = target: EGFR(L747-S752del, P753S) (Homo sapiens, UniProt P00533, DEL747-752/P753S)
PIK3CA(E542K) = PIK3CA(E542K) (Homo sapiens, UniProt P42336, E542K)
CSNK1G2 = CSNK1G2 (Homo sapiens, UniProt P78368)
AKT1 = AKT1 (Homo sapiens, UniProt P31749)
PAK3 = PAK3 (Homo sapiens, UniProt O75914)
DCAMKL2 = target: T6, DCAMKL2 (Homo sapiens, UniProt Q8N568)
T6 construct: gene DCLK2

NDR2 = target: T7, NDR2 (Homo sapiens, UniProt Q9Y2H1)
T7 construct: gene STK38L

MERTK = MERTK (Homo sapiens, UniProt Q12866)

CSK, sequence (P41240 whole entry): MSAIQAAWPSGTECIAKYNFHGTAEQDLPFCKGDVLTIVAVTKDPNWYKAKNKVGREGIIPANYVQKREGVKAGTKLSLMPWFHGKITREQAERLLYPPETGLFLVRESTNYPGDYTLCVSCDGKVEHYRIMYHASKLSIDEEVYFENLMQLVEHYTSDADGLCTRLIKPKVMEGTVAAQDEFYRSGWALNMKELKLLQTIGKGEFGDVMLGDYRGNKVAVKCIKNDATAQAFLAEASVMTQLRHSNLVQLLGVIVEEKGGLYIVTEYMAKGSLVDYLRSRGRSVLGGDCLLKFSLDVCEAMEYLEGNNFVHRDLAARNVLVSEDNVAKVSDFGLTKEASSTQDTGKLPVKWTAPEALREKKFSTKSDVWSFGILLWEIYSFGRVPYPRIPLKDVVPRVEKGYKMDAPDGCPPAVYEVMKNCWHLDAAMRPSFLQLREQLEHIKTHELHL
BMX, sequence (P51813 whole entry): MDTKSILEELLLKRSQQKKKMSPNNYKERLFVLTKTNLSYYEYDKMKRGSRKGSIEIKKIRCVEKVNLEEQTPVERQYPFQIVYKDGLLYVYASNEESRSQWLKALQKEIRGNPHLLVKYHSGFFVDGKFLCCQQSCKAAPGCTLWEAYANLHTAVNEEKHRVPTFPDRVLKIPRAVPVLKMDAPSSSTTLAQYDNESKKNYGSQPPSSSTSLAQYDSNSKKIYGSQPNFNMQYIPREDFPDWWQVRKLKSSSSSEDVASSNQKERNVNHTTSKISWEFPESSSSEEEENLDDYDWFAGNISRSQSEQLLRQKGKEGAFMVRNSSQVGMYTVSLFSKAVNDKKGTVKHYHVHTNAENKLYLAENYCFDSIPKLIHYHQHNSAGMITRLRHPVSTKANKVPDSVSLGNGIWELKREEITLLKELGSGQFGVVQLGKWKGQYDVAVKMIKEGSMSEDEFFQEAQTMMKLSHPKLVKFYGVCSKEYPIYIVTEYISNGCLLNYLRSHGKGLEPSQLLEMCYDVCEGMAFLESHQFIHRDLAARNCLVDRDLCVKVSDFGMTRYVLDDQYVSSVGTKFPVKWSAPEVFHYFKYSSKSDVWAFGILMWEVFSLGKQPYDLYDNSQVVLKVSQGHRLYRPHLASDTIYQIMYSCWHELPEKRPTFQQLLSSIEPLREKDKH
T1 sequence (O14920 whole entry): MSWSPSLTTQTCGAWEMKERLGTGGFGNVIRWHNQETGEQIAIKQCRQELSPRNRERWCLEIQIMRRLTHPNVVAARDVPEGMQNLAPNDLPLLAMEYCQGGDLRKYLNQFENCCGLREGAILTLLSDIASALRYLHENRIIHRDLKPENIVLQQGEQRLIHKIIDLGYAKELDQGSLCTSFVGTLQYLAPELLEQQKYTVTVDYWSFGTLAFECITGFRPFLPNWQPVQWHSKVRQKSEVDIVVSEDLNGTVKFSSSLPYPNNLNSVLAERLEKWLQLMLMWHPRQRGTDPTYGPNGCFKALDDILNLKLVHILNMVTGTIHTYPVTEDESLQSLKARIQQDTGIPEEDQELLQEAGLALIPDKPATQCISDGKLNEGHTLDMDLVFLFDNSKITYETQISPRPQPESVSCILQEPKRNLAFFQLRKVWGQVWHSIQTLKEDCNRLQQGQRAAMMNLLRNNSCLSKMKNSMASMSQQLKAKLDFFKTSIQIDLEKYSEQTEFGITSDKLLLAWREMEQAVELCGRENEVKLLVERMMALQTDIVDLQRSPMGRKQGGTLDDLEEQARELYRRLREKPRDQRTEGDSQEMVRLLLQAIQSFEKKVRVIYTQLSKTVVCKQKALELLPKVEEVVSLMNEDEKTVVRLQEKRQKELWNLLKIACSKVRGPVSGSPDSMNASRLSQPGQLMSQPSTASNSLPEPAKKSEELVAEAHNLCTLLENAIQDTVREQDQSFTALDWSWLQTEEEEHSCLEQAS
PRKD3, sequence (O94806 whole entry): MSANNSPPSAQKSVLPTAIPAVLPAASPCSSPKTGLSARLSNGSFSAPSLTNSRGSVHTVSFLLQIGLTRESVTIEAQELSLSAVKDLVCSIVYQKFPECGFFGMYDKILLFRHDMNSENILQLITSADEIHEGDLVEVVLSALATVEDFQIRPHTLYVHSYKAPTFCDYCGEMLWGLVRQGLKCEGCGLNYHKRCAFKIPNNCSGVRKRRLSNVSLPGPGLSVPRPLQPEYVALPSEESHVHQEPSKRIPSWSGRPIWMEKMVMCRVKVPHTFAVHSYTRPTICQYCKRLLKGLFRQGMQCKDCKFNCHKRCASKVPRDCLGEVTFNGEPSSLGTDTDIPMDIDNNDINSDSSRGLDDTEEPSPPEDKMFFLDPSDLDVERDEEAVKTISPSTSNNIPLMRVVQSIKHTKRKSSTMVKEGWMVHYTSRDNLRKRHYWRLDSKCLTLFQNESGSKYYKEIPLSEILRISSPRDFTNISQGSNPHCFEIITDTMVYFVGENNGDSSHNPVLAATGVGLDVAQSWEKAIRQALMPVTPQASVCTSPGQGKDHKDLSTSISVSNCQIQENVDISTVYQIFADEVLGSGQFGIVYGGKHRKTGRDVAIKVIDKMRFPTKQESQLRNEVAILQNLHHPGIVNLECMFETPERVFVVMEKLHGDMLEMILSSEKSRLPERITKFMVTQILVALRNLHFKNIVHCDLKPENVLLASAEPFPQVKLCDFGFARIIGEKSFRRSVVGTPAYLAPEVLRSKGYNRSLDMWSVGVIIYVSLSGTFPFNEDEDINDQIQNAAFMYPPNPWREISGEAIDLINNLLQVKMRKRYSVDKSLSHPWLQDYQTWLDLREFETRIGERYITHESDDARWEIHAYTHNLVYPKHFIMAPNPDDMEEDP
T4 sequence (Q16659 whole entry): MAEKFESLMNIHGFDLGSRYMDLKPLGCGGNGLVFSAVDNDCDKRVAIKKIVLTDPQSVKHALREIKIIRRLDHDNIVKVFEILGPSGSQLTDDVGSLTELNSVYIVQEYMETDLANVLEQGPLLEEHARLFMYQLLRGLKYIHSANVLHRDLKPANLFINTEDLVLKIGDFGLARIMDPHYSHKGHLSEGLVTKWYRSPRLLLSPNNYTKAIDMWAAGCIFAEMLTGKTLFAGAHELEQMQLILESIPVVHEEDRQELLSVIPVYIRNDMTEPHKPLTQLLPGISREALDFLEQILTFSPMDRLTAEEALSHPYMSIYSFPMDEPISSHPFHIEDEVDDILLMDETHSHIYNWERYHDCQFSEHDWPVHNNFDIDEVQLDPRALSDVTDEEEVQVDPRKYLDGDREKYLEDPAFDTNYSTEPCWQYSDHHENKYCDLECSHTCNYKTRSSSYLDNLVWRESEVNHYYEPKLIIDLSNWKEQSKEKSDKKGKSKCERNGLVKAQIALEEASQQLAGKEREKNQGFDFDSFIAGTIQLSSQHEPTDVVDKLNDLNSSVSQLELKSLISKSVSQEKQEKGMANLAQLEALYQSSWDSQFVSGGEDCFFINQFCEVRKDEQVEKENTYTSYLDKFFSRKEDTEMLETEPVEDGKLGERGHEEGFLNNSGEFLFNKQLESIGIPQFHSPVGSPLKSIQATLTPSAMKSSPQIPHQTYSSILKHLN
EGFR(G719S), sequence (P00533 whole entry G719S): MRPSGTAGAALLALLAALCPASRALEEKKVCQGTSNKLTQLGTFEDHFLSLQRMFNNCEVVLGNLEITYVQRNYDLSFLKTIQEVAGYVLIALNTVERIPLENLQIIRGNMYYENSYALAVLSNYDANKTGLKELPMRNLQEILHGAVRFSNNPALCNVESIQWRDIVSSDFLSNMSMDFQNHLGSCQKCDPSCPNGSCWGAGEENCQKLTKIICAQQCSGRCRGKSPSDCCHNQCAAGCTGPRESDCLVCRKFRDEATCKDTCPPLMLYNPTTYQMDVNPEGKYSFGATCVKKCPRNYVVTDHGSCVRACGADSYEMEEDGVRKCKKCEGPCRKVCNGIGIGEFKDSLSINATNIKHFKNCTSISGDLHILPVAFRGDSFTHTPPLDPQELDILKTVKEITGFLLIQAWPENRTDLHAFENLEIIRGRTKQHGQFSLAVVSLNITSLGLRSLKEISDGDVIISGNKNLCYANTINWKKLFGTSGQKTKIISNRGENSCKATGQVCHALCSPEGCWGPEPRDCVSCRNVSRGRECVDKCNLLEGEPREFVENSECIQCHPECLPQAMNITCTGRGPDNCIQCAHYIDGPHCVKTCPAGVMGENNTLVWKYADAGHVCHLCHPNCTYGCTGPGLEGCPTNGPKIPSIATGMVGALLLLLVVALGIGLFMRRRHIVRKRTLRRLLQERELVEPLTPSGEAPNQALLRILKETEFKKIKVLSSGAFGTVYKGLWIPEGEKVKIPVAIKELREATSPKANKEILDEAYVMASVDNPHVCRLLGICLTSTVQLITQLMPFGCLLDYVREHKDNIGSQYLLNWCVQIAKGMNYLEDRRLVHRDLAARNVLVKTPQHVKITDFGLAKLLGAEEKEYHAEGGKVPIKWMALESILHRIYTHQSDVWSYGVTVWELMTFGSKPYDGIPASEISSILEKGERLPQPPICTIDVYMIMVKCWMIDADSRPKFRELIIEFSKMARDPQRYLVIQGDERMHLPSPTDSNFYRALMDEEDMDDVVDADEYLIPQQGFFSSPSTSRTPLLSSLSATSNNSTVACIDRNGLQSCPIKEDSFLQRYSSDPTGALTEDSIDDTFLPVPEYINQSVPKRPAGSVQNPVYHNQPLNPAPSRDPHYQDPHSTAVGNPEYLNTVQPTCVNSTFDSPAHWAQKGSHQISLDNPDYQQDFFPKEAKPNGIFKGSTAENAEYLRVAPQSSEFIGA
CDK7, sequence (P50613 whole entry): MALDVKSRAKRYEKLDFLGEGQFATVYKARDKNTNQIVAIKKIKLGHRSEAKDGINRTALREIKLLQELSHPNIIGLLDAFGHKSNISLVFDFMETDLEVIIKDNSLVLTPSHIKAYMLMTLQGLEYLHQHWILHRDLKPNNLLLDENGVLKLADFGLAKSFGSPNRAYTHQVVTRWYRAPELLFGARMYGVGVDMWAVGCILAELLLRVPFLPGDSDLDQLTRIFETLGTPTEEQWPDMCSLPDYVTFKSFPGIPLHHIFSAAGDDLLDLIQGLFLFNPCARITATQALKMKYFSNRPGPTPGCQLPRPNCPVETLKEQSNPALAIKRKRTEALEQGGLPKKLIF

Row | Structure (SMILES) | remaining binding at 10 µM (FLT4) | remaining binding at 10 µM (EGFR(G719S)) | remaining binding at 10 µM (TLK2) | remaining binding at 10 µM (IKK-beta) | remaining binding at 10 µM (BMX) | remaining binding at 10 µM (CSK) | remaining binding at 10 µM (SYK) | remaining binding at 10 µM (MARK1) | remaining binding at 10 µM [1] | remaining binding at 10 µM (CDK7) | remaining binding at 10 µM [2] | remaining binding at 10 µM (ERK3) | remaining binding at 10 µM (YES) | remaining binding at 10 µM (PRKD3) | remaining binding at 10 µM (TTK) | remaining binding at 10 µM [3] | remaining binding at 10 µM (PIK3CA(E542K)) | remaining binding at 10 µM (CSNK1G2) | remaining binding at 10 µM (AKT1) | remaining binding at 10 µM (PAK3) | also measured
1 | COc1ccc(-c2cnccc2-c2cnc(NC(=O)C(C)C)s2)c(C(F)(F)F)c1 [CRT0105446, N-{5-[3-(4-Methoxy-2-trifluoromethyl-phenyl)-pyridin-4-yl]-hiazol-2-yl}-isobutyramide] | 61% | 94% | 99% | 88% | 100% | 91% | 100% | 87% | 92% | 5.8% | 43% | 100% | 99% | 98% | 32% | 92% | 100% | 55% | 100% | 4.6% | remaining binding at 10 µM (DCAMKL2): 39%; remaining binding at 10 µM (NDR2): 82%; remaining binding at 10 µM (MERTK): 69%
2 | Cc1ccc(-c2cnccc2-c2cnc(Nc3ccc(O)cc3)s2)c(Cl)c1 [CRT0105950, 4-{5-[3-(2-Chloro-4-methyl-phenyl)-pyridin-4-yl]-thiazol-2-ylamino}-phenol] | 26% | 75% | 56% | 88% | 81% | 71% | 100% | 5.8% | 86% | 32% | 27% | 97% | 66% | 11% | 1.7% | 66% | 100% | 30% | 100% | 4.1% | remaining binding at 10 µM (DCAMKL2): 77%; remaining binding at 10 µM (NDR2): 80%; remaining binding at 10 µM (MERTK): 0.45%
